# In US20140094424A1, “MICROBICIDAL COMPOSITIONS AND METHODS OF PRODUCTION USE THEREOF” (priority 2011, published 2014):
# What was measured:
# Test in all cases: MBC (minimum bactericidal concentration) test in Wash NEXT reagent
# Assay type in all cases: cell-based
# [1] = tested on: Pseudomonas aeruginosa (L)
# Experimental: (§1) The stock organisms were thawed and subbed prior to beginning the MBC test. Molds were subbed to SDA plates one week before, and the bacteria were subbed to TAT agar plates 24 hours prior to the start of the test. All plates were incubated at 32 degrees C.
# (§2) Each bacterial organism was inoculated into 40 ml sterile saline in a centrifuge tube to create a density of MacFarland #1. Two serial dilutions of 1:100 were then made, resulting in 10^−2 and 10^−4 concentrations. Each dilution was vortexed before it was sampled, and sterile Eppendorf pipette tips were used to make each transfer. The 10^−4 dilution was spiral plated to yield the initial inoculum concentration.
# (§3) MBC trays were set up with the prepared test reagent. Using a Matrix pipettor, 100 μl aliquots of reagent were distributed into the wells, diluting the amount of preservative from 100% to 10% increments, using unpreserved reagent as the diluent. In one row, 100% non-preserved reagent acted as a positive control and served as a benchmark for a full mat of growth. In well #12H, 100 μl unpreserved reagent was pipetted, and this well was not inoculated with organisms, as it served as the negative control. Once all of the trays were prepared, the prepared bacteria/mold suspensions were poured into the MBC inoculating trays. These were placed onto the reagent trays, and 0.01 ml inoculum was introduced into the 100 μl of reagent in each well.
# (§4) This was done by dipping a sterile cotton swab into each well, and absorbing all of the liquid in the well. The swab was rolled onto a TAT agar plate ensuring that the entire swab touches the agar. Plates ware incubated at 32 degrees C. for 48 hours to 7 days, depending on the organism. Observations for growth were performed by a scoring matrix using + for a full mat, +/− for some growth, a numerical value for an actual colony count, and—for no growth.
# (§5) Below are tables that contain the data obtained in Example 1. The MBC test is scored by (+) indicating a full grown mat of organisms, equivalent to the organisms in the unpreserved reagent. (+/−) indicates there is some kill evident disturbing that mat or bringing the quantities down to an almost countable level. An actual number is the actual number of colonies growing at that concentration of preservative. (−) indicates no growth found. The MBC trays were stored at room temperature for the entire test.
# (§6) The materials and methods and analysis of the MBC test were the same as in Example 1.
# [2] = tested on: Pseudomonas fluorescens (D)
# Experimental: as §1, §2, §3, §4, §5, §6
# [3] = tested on: Pseudomonas putida (K)
# Experimental: as §1, §2, §3, §4, §5, §6
substance,measurement,setting,value
gentamicin,MBC test growth score,"[1]; 10% preservative, 8 hour",+
same,MBC test growth score,"[1]; 10% preservative, 24 hour",+
same,MBC test growth score,"[1]; 10% preservative, 48 hour",+/−
same,MBC test growth score,"[1]; 10% preservative, 72 hour",8
same,MBC test growth score,"[1]; 20% preservative, 8 hour",+
same,MBC test growth score,"[1]; 20% preservative, 24 hour",+
same,MBC test growth score,"[1]; 20% preservative, 48 hour",+/−
same,MBC test growth score,"[1]; 20% preservative, 72 hour",4
same,MBC test growth score,"[1]; 30% preservative, 8 hour",+
same,MBC test growth score,"[1]; 30% preservative, 24 hour",+/−
same,MBC test growth score,"[1]; 30% preservative, 48 hour",+/−
same,MBC test growth score,"[1]; 30% preservative, 72 hour",2
same,MBC test growth score,"[1]; 40% preservative, 8 hour",+
same,MBC test growth score,"[1]; 40% preservative, 24 hour",+/−
same,MBC test growth score,"[1]; 40% preservative, 48 hour",+/−
same,MBC test growth score,"[1]; 40% preservative, 72 hour",1
same,MBC test growth score,"[1]; 50% preservative, 8 hour",+
same,MBC test growth score,"[1]; 50% preservative, 24 hour",+/−
same,MBC test growth score,"[1]; 50% preservative, 48 hour",+/−
same,MBC test growth score,"[1]; 50% preservative, 72 hour",−
same,MBC test growth score,"[1]; 60% preservative, 8 hour",+/−
same,MBC test growth score,"[1]; 60% preservative, 24 hour",+/−
same,MBC test growth score,"[1]; 60% preservative, 48 hour",+/−
same,MBC test growth score,"[1]; 60% preservative, 72 hour",−
same,MBC test growth score,"[1]; 70% preservative, 8 hour",+/−
same,MBC test growth score,"[1]; 70% preservative, 24 hour",+/−
same,MBC test growth score,"[1]; 70% preservative, 48 hour",+/−
same,MBC test growth score,"[1]; 70% preservative, 72 hour",−
same,MBC test growth score,"[1]; 80% preservative, 8 hour",+/−
same,MBC test growth score,"[1]; 80% preservative, 24 hour",+/−
same,MBC test growth score,"[1]; 80% preservative, 48 hour",+/−
same,MBC test growth score,"[1]; 80% preservative, 72 hour",−
same,MBC test growth score,"[1]; 90% preservative, 8 hour",+/−
same,MBC test growth score,"[1]; 90% preservative, 24 hour",+/−
same,MBC test growth score,"[1]; 90% preservative, 48 hour",−
same,MBC test growth score,"[1]; 90% preservative, 72 hour",−
same,MBC test growth score,"[1]; 100% preservative, 8 hour",+/−
same,MBC test growth score,"[1]; 100% preservative, 24 hour",+/−
same,MBC test growth score,"[1]; 100% preservative, 48 hour",−
same,MBC test growth score,"[1]; 100% preservative, 72 hour",−
same,MBC test growth score,"[2]; 10% preservative, 8 hour",+
same,MBC test growth score,"[2]; 10% preservative, 24 hour",+
same,MBC test growth score,"[2]; 10% preservative, 48 hour",+/−
same,MBC test growth score,"[2]; 10% preservative, 72 hour",15
same,MBC test growth score,"[2]; 20% preservative, 8 hour",+
same,MBC test growth score,"[2]; 20% preservative, 24 hour",+
same,MBC test growth score,"[2]; 20% preservative, 48 hour",+/−
same,MBC test growth score,"[2]; 20% preservative, 72 hour",12
same,MBC test growth score,"[2]; 30% preservative, 8 hour",+
same,MBC test growth score,"[2]; 30% preservative, 24 hour",+/−
same,MBC test growth score,"[2]; 30% preservative, 48 hour",+/−
same,MBC test growth score,"[2]; 30% preservative, 72 hour",−
same,MBC test growth score,"[2]; 40% preservative, 8 hour",+
same,MBC test growth score,"[2]; 40% preservative, 24 hour",+/−
same,MBC test growth score,"[2]; 40% preservative, 48 hour",+/−
same,MBC test growth score,"[2]; 40% preservative, 72 hour",−
same,MBC test growth score,"[2]; 50% preservative, 8 hour",+/−
same,MBC test growth score,"[2]; 50% preservative, 24 hour",14
same,MBC test growth score,"[2]; 50% preservative, 48 hour",+/−
same,MBC test growth score,"[2]; 50% preservative, 72 hour",−
same,MBC test growth score,"[2]; 60% preservative, 8 hour",+/−
same,MBC test growth score,"[2]; 60% preservative, 24 hour",13
same,MBC test growth score,"[2]; 60% preservative, 48 hour",+/−
same,MBC test growth score,"[2]; 60% preservative, 72 hour",−
same,MBC test growth score,"[2]; 70% preservative, 8 hour",+/−
same,MBC test growth score,"[2]; 70% preservative, 24 hour",5
same,MBC test growth score,"[2]; 70% preservative, 48 hour",−
same,MBC test growth score,"[2]; 70% preservative, 72 hour",−
same,MBC test growth score,"[2]; 80% preservative, 8 hour",+/−
same,MBC test growth score,"[2]; 80% preservative, 24 hour",5
same,MBC test growth score,"[2]; 80% preservative, 48 hour",−
same,MBC test growth score,"[2]; 80% preservative, 72 hour",−
same,MBC test growth score,"[2]; 90% preservative, 8 hour",+/−
same,MBC test growth score,"[2]; 90% preservative, 24 hour",1
same,MBC test growth score,"[2]; 90% preservative, 48 hour",−
same,MBC test growth score,"[2]; 90% preservative, 72 hour",−
same,MBC test growth score,"[2]; 100% preservative, 8 hour",+/−
same,MBC test growth score,"[2]; 100% preservative, 24 hour",−
same,MBC test growth score,"[2]; 100% preservative, 48 hour",−
same,MBC test growth score,"[2]; 100% preservative, 72 hour",−
same,MBC test growth score,"[3]; 10% preservative, 8 hour",−
same,MBC test growth score,"[3]; 10% preservative, 24 hour",−
same,MBC test growth score,"[3]; 10% preservative, 48 hour",−
same,MBC test growth score,"[3]; 10% preservative, 72 hour",−
same,MBC test growth score,"[3]; 20% preservative, 8 hour",−
same,MBC test growth score,"[3]; 20% preservative, 24 hour",−
same,MBC test growth score,"[3]; 20% preservative, 48 hour",−
same,MBC test growth score,"[3]; 20% preservative, 72 hour",−
same,MBC test growth score,"[3]; 30% preservative, 8 hour",−
same,MBC test growth score,"[3]; 30% preservative, 24 hour",−
same,MBC test growth score,"[3]; 30% preservative, 48 hour",−
same,MBC test growth score,"[3]; 30% preservative, 72 hour",−
same,MBC test growth score,"[3]; 40% preservative, 8 hour",−
same,MBC test growth score,"[3]; 40% preservative, 24 hour",−
same,MBC test growth score,"[3]; 40% preservative, 48 hour",−
same,MBC test growth score,"[3]; 40% preservative, 72 hour",−
same,MBC test growth score,"[3]; 50% preservative, 8 hour",−
same,MBC test growth score,"[3]; 50% preservative, 24 hour",−
same,MBC test growth score,"[3]; 50% preservative, 48 hour",−
same,MBC test growth score,"[3]; 50% preservative, 72 hour",−
same,MBC test growth score,"[3]; 60% preservative, 8 hour",−
same,MBC test growth score,"[3]; 60% preservative, 24 hour",−
same,MBC test growth score,"[3]; 60% preservative, 48 hour",−
same,MBC test growth score,"[3]; 60% preservative, 72 hour",−
same,MBC test growth score,"[3]; 70% preservative, 8 hour",−
same,MBC test growth score,"[3]; 70% preservative, 24 hour",−
same,MBC test growth score,"[3]; 70% preservative, 48 hour",−
same,MBC test growth score,"[3]; 70% preservative, 72 hour",−
same,MBC test growth score,"[3]; 80% preservative, 8 hour",−
same,MBC test growth score,"[3]; 80% preservative, 24 hour",−
same,MBC test growth score,"[3]; 80% preservative, 48 hour",−
same,MBC test growth score,"[3]; 80% preservative, 72 hour",−
same,MBC test growth score,"[3]; 90% preservative, 8 hour",−
same,MBC test growth score,"[3]; 90% preservative, 24 hour",−
same,MBC test growth score,"[3]; 90% preservative, 48 hour",−
same,MBC test growth score,"[3]; 90% preservative, 72 hour",−
same,MBC test growth score,"[3]; 100% preservative, 8 hour",−
same,MBC test growth score,"[3]; 100% preservative, 24 hour",−
same,MBC test growth score,"[3]; 100% preservative, 48 hour",−
same,MBC test growth score,"[3]; 100% preservative, 72 hour",−
